Data reported in patent US11130756B2, “[1,2,4]Triazolo[4,3-A]pyridinyl substituted indole compounds” (BRISTOL-MYERS SQUIBB COMPANY, priority 2017, dated 2021).

Columns and labels:
Assay type in all cases: cell-based
human TLR8 = target: T1, human TLR8 (Homo sapiens, UniProt Q9NR97); test: TLR8 inhibition reporter assay (HEK-Blue, SEAP); conditions: HEK-Blue cells overexpressing human TLR8, R848 15.9 μM, 22 hour incubation
T1 construct: host or cells: HEK-Blue cells
T1 sequence (Q9NR97 27-1041): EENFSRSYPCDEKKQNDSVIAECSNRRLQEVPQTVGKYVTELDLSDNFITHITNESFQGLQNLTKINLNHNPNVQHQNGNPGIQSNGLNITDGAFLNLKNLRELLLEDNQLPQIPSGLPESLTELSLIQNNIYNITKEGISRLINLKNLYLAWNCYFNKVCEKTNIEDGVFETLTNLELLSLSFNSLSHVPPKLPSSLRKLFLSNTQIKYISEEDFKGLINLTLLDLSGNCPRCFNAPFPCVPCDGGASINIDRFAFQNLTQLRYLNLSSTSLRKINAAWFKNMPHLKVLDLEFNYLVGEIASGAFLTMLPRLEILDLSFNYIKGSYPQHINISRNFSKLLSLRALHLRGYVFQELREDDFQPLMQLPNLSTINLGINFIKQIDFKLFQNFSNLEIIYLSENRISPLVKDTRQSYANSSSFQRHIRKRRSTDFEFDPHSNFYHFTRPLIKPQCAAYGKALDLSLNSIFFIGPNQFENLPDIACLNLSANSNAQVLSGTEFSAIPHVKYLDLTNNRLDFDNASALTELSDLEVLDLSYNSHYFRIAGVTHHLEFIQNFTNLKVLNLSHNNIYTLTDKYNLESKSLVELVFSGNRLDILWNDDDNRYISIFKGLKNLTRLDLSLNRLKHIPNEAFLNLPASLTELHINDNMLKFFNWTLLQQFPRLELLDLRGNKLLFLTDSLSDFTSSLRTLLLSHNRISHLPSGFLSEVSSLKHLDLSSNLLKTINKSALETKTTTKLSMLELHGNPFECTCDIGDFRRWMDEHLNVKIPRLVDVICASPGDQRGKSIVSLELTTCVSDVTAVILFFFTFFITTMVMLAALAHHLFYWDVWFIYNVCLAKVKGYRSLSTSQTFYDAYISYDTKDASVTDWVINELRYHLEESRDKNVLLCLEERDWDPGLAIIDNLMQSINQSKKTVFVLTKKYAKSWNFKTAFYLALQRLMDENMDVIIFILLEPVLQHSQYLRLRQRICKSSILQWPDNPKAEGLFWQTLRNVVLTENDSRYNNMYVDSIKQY
Summary of the method: (§1)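 Screening used HEK-Blue cells overexpressing one human TLR (7, 8 or 9) and an IFN-β minimal promoter–NF-κB/AP-1 SEAP construct. Stimulation lasted 22 h at 37 °C with receptor-specific agonist: gardiquimod, R848 or ODN2006 at 7.5 μM, 15.9 μM and 5 nM.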

human TLR9 = target: T2, human TLR9 (Homo sapiens, UniProt Q9NR96); test: TLR9 inhibition reporter assay (HEK-Blue, SEAP); conditions: HEK-Blue cells overexpressing human TLR9, ODN2006 5 nM, 22 hour incubation
T2 construct: host or cells: HEK-Blue cells
T2 sequence (Q9NR96 26-1032): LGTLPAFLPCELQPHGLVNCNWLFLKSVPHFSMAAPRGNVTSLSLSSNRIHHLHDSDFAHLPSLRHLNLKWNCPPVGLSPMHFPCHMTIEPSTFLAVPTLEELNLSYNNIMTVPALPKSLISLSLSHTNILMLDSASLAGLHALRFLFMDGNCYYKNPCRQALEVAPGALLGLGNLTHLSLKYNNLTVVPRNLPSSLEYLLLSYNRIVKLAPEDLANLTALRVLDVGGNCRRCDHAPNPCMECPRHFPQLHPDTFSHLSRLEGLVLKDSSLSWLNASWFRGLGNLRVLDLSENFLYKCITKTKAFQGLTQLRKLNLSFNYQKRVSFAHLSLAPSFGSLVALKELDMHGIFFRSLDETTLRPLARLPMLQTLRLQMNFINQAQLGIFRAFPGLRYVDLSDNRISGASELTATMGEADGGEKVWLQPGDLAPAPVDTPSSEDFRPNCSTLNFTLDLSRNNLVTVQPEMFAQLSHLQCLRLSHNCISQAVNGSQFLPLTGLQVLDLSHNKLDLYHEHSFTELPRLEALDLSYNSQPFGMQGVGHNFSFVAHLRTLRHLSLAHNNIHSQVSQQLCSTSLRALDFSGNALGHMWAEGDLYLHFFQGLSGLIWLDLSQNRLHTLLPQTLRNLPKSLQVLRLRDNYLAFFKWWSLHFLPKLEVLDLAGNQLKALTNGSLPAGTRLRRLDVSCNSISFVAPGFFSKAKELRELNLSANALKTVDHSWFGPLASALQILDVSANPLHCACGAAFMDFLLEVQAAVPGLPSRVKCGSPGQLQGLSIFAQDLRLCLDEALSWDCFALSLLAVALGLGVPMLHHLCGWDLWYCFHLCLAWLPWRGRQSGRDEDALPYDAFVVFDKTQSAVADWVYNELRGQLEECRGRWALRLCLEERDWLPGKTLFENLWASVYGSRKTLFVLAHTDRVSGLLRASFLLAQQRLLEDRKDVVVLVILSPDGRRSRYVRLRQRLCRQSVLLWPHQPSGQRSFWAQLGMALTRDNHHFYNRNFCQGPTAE
Summary of the method: as §1

human TLR7 = target: T3, human TLR7 (Homo sapiens, UniProt Q9NYK1); test: TLR7 inhibition reporter assay (HEK-Blue, SEAP); conditions: HEK-Blue cells overexpressing human TLR7, gardiquimod 7.5 μM, 22 hour incubation
T3 construct: host or cells: HEK-Blue cells
T3 sequence (Q9NYK1 27-1049): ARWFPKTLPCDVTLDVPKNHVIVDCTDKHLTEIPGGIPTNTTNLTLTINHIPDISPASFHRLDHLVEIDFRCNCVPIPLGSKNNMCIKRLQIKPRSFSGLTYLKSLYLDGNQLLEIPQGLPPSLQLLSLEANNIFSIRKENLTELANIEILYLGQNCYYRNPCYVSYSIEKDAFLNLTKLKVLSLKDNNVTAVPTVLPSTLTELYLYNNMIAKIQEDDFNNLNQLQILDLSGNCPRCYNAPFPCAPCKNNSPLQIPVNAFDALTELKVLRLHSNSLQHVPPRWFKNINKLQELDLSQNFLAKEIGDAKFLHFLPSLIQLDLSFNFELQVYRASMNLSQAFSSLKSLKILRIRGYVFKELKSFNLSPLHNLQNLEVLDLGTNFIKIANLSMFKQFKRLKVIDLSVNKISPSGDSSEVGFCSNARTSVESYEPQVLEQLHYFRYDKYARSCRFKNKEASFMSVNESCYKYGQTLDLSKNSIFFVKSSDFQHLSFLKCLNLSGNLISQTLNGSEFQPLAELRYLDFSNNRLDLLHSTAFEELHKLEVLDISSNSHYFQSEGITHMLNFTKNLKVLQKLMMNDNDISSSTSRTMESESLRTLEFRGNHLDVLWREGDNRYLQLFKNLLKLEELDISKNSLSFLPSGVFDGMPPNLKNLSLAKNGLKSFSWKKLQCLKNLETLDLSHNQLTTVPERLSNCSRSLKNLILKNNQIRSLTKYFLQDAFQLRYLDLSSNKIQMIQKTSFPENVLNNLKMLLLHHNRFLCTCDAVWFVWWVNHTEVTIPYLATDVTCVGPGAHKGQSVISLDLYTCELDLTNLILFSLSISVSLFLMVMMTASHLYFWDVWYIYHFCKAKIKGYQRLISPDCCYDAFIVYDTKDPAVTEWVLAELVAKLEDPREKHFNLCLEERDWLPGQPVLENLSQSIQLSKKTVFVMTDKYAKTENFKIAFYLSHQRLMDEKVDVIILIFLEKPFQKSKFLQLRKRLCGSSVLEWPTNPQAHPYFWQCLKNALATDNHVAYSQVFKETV
Summary of the method: as §1

IC50 (human TLR8): 29.7 nM | IC50 (human TLR9): 14600 nM | IC50 (human TLR7): 5.6 nM
Structure (SMILES): Cc1c(-c2[nH]c3ccc(C4CC(C)N(C5COC5)C(C)C4)cc3c2C(C)C)cn2cnnc2c1C (stereo not drawn) [Example 115, 6-(5-(2,6-dimethyl-1-(oxetan-3-yl)piperidin-4-yl)-3-isopropyl-1H-indol-2-yl)-7,8-dimethyl-[1,2,4]triazolo[4,3-a]pyridine]
